Test results reported in patent US20070203211A1, “Drug for preventing or treating angiogenic eye diseases” (SANKYO COMPANY, LIMITED, priority 2003, published 2007).

What was measured:
C57BL/6 mice = experiment: oxygen-induced retinopathy in mice, retinopathy score by ADPase staining of retinal flat specimens; type: in vivo; conditions: score as percentage of solvent control (100%), n = 9 to 16
Procedure: Seven-day-old C57BL/6 mice were housed for five days with their mother in roughly 75% oxygen. Subsequently, the animals were housed for another five days after returning to ordinary air. While being housed in air, the animals were administered a test compound once a day. Following completion of administration, the animals were sacrificed by dislocation of the cervical vertebra followed by excision of the eyeball. The eyeballs were fixed in neutral formalin. After preparing flat specimens of the retina, vascular endothelium was stained by ADPase staining (Lutty, et al., Arch. Ophthalmol. 1992; 100: 267). After staining, retinopathy was scored in a blind study, and retinopathy was assessed for each of 12 retinal sections obtained by dividing the entire circumference of the retina into 12 equal sections centering about the papilla of the optic nerve. Assessments were made by scoring either the presence of retinopathy (score: 1) or the absence of retinopathy (score: 0), and determining the retinopathy score for each specimen based on the total score of the 12 sections. The score of each test compound was calculated as a percentage based on assigning a value of 100% for the score following administration of solvent. The test compounds consisted of (5-methyl-2-oxo-1,3-dioxolen-4-yl)methyl 4-(1-hydroxy-1-methylethyl)-2-propyl-1-[2′-(1H-tetrazol-5-yl)biphenyl-4-ylmethyl]imidazole-5-carboxylate (hereinafter, indicated as “Compound A”) for the medicament of the present invention, Candesartan cilexetil and Losartan.

[1] = test system: New Zealand White rabbits; experiment: VEGF pellet-induced corneal neovascularization in rabbits; type: in vivo; conditions: dosage 10 mg/kg once a day for one week; AA = neovascularization density score (0 to 5) x length (mm); solvent control 0.72 ± 0.15; n = 3
Text: Male New Zealand White rabbits were used in this example. The animals were anesthetized by administering suitable amounts of animal […] (registered trade mark) 50 and Celactal (registered trade mark). Moreover, the eyes were topically anesthetized by dropping 0.4% Benoxil (registered trade mark) opthalmic solution. The procedure was basically preformed in accordance with the method of Ziche, et al. (J. Clin. Invest. 1997 99: 2625-2634), and consisted of creating a pocket in the center of the cornea with a razor, and inserting a hydron pellet containing VEGF produced in advance into the pocket. A solution of the test compound was administered once a day for one week. Corneal neovascularization was photographed on the day after final administration of the test compound. Neovascularization was evaluated using the density and length of newly formed vessels as an index. Namely, neovascularization density was scored from 0 to 5 by referring to standard photographs corresponding to each score. The length of neovascularization was calculated by measuring the length (mm) of vessels uniformly extending from the corneal limbus towards the pellet based on a scale bar on the photograph. The value obtained by multiplying the neovascularization density score by the neovascularization length (mm) was used to indicate angiogenic activity (AA).

[2] = dosage 1 mg/kg once a day for five days
[3] = dosage 3 mg/kg once a day for five days
[4] = dosage 10 mg/kg once a day for five days
[5] = dosage 30 mg/kg once a day for five days

SMILES	Retinopathy (%) (C57BL/6 mice; [2])	Retinopathy (%) (C57BL/6 mice; [3])	Retinopathy (%) (C57BL/6 mice; [4])	Retinopathy (%) (C57BL/6 mice; [5])	Angiogenic Activity (AA) [1]	Retinopathy (%) (C57BL/6 mice; dosage 100 mg/kg once a day for five days)
CCOc1nc2cccc(C(=O)OC(C)OC(=O)OC3CCCCC3)c2n1Cc1ccc(-c2ccccc2-c2nnn[nH]2)cc1 (stereo not shown) [Candesartan cilexetil]	84 ± 14%	70 ± 12%	56 ± 11%	58 ± 11%		
CCCc1nc(C(C)(C)O)c(C(=O)OCc2oc(=O)oc2C)n1Cc1ccc(-c2ccccc2-c2nnn[nH]2)cc1 [Compound A, (5-methyl-2-oxo-1,3-dioxolen-4-yl)methyl 4-(1-hydroxy-1-methylethyl)-2-propyl-1-[2′-(1H-tetrazol-5-yl)biphenyl-4-ylmethyl]imidazole-5-carboxylate]	57 ± 13%	40 ± 9%	31 ± 7%	32 ± 11%	0.14 ± 0.11	
CCCCc1nc(Cl)c(CO)n1Cc1ccc(-c2ccccc2-c2nn[nH]n2)cc1 [Losartan]		90 ± 11%	54 ± 10%	42 ± 9%		40 ± 11%
